Structures are written as SMILES.

The target in this assay is T1, recombinant human AKR1C3 (Homo sapiens, UniProt P42330).
T1 construct: GST (cleaved yes); made in house; host or cells: E. coli
T1 sequence (P42330 1-323): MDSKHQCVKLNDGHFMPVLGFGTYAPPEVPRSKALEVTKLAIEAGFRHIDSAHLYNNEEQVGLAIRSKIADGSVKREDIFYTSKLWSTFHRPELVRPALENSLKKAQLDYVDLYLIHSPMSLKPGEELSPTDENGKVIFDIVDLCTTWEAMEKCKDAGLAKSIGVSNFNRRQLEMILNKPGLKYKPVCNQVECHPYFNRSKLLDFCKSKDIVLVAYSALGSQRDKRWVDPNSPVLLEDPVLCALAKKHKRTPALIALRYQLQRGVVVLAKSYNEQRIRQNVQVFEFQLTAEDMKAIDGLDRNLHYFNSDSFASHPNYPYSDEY
The assay is described as follows: AKR1C3-inhibitory activity assay (generation of Coumberol from Coumberone). As to conditions: Coumberone 0.3 μM, NADPH 10 μM, 22° C., typically 90 min, average or median values. The assay is classed as biochemical. A digest of the protocol:
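Recombinant human AKR1C3 (E. coli GST fusion, GST removed; ~1 nM) preincubated 15 min with compound, then NADPH 10 μM and Coumberone 0.3 μM (final), 22 °C, typically 90 min, in 50 mM K-phosphate pH 7. Stopped with EM-1404 (1 μM final); Coumberol fluorescence read at 520 nm (ex 380 nm), normalized to no-inhibitor and no-enzyme controls.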
One may read the IC50 as the concentration needed to halve the response being measured. In the case of `C[C@@H]1CN(C(=O)c2cnn[nH]2)[C@@H](C)CN1S(=O)(=O)c1cccc(F)c1` [Example 7, sodium 5-({(2S,5R)-4-[(3-fluorophenyl)sulfonyl]-2,5-dimethylpiperazin-1-yl}carbonyl)-1,2,3-triazol-1-ide], the 50% inhibitory concentration (IC50) was determined as 1 nM.
To `CC(=O)Nc1cccc(S(=O)(=O)N2C[C@H](C)N(C(=O)c3cnn[nH]3)C[C@H]2C)c1` [Example 80, N-(3-{[(2R,5S)-2,5-dimethyl-4-(1H-1,2,3-triazol-5-ylcarbonyl)piperazin-1-yl]sulfonyl}phenyl)acetamide] belongs 104 nM; to `COc1cc(F)ccc1S(=O)(=O)N1CCN(C(=O)c2cnn[nH]2)CC1(C)C` [Example 138, {4-[(4-fluoro-2-methoxyphenyl)sulfonyl]-3,3-dimethylpiperazin-1-yl}(1H-1,2,3-triazol-5-yl)methanone], 23 nM; to `C[C@@H]1CN(S(=O)(=O)c2cc(Cl)cc(Cl)c2)C[C@H](C)N1C(=O)c1c[nH]nn1` [Example 58, {(2R,6S)-4-[(3,5-dichlorophenyl)sulfonyl]-2,6-dimethylpiperazin-1-yl}(1H-1,2,3-triazol-4-yl)methanone], 2 nM.
To `C[C@@H]1CN(C(=O)c2cnn[nH]2)[C@@H](C)CN1S(=O)(=O)c1ccccc1Br` [Example 76, {(2S,5R)-4-[(2-bromophenyl)sulfonyl]-2,5-dimethylpiperazin-1-yl}(1H-1,2,3-triazol-5-yl)methanone] belongs 1 nM; to `CC1(C)CN(C(=O)c2cnn[nH]2)CCN1S(=O)(=O)c1ccc([N+](=O)[O-])cc1` [Example 111, {3,3-dimethyl-4-[(4-nitrophenyl)sulfonyl]piperazin-1-yl}(1H-1,2,3-triazol-5-yl)methanone], 89 nM.
Turning to `COc1ccc(OC)c(S(=O)(=O)N2CCN(C(=O)c3cnn[nH]3)CC2(C)C)c1` [Example 115, {4-[(2,5-dimethoxyphenyl)sulfonyl]-3,3-dimethylpiperazin-1-yl}(1H-1,2,3-triazol-5-yl)methanone], the concentration for half-maximal inhibition (IC50) turned out to be 208 nM.
With `C[C@@H]1CN(C(=O)c2c[nH]nn2)[C@@H](C)CN1S(=O)(=O)c1cc(F)ccc1F` [Example 13, {(2S,5R)-4-[(2,5-difluorophenyl)sulfonyl]-2,5-dimethylpiperazin-1-yl}(1H-1,2,3-triazol-4-yl)methanone] the figure was 2 nM.
Regarding `Cc1ccccc1S(=O)(=O)N1CCN(C(=O)c2cnn[nH]2)CC1(C)C` [Example 31, {3,3-dimethyl-4-[(2-methylphenyl)sulfonyl]piperazin-1-yl}(1H-1,2,3-triazol-5-yl)methanone], the half-inhibitory concentration (IC50) stood at 5 nM.
To `C[C@@H]1CN(C(=O)c2cnn[nH]2)C[C@H](C)N1S(=O)(=O)c1cccc(F)c1` [Example 41, {(3R,5S)-4-[(3-fluorophenyl)sulfonyl]-3,5-dimethylpiperazin-1-yl}(1H-1,2,3-triazol-5-yl)methanone] belongs 9 nM; to `CC1(C)CN(C(=O)c2cnn[nH]2)CCN1S(=O)(=O)c1cccc2nsnc12` [Example 121, [4-(2,1,3-benzothiadiazol-4-ylsulfonyl)-3,3-dimethylpiperazin-1-yl](1H-1,2,3-triazol-5-yl)methanone], 29 nM; to `Cc1ccccc1S(=O)(=O)N1C[C@H](C)N(C(=O)c2cnn[nH]2)C[C@H]1C` [Example 69, {(2S,5R)-2,5-dimethyl-4-[(2-methylphenyl)sulfonyl]piperazin-1-yl}(1H-1,2,3-triazol-5-yl)methanone], 1 nM.
To `Cc1cc(Cl)cc(S(=O)(=O)N2CCN(C(=O)c3cnn[nH]3)CC2(C)C)c1` [Example 140, {4-[(3-chloro-5-methylphenyl)sulfonyl]-3,3-dimethylpiperazin-1-yl}(1H-1,2,3-triazol-5-yl)methanone] belongs 2 nM; to `CC1(C)CN(C(=O)c2cnn[nH]2)CCN1S(=O)(=O)c1ccc2c(c1)OCO2` [Example 132, [4-(1,3-benzodioxol-5-ylsulfonyl)-3,3-dimethylpiperazin-1-yl](1H-1,2,3-triazol-5-yl)methanone], 22 nM.
As for `CC1(C)CN(C(=O)c2cnn[nH]2)CCN1S(=O)(=O)c1ccccc1Cl` [Example 32, {4-[(2-chlorophenyl)sulfonyl]-3,3-dimethylpiperazin-1-yl}(1H-1,2,3-triazol-5-yl)methanone], the half-inhibitory concentration (IC50) came out at 15 nM.
To `C[C@@H]1CN(S(=O)(=O)c2cccc(C#N)c2)C[C@H](C)N1C(=O)c1c[nH]nn1` [Example 54, 3-{[(3R,5S)-3,5-dimethyl-4-(1H-1,2,3-triazol-4-ylcarbonyl)piperazin-1-yl]sulfonyl}benzonitrile] belongs 118 nM; to `C[C@@H]1CN(C(=O)c2cnn[nH]2)C[C@H](C)N1S(=O)(=O)c1cc(F)cc(F)c1` [Example 42, {(3R,5S)-4-[(3,5-difluorophenyl)sulfonyl]-3,5-dimethylpiperazin-1-yl}(1H-1,2,3-triazol-5-yl)methanone], 9 nM.
Consider `CC1(C)CN(C(=O)c2c[nH]nn2)CCN1S(=O)(=O)c1cc(F)cc(F)c1` [Example 29, {4-[(3,5-difluorophenyl)sulfonyl]-3,3-dimethylpiperazin-1-yl}(1H-1,2,3-triazol-4-yl)methanone], for which the IC50 was found to be 11 nM.
In the case of `CC1(C)CN(C(=O)c2cnn[nH]2)CCN1S(=O)(=O)c1ccccc1[N+](=O)[O-]` [Example 114, {3,3-dimethyl-4-[(2-nitrophenyl)sulfonyl]piperazin-1-yl}(1H-1,2,3-triazol-5-yl)methanone], the half-inhibitory concentration (IC50) turned out to be 10 nM.
Regarding `C[C@@H]1CN(C(=O)c2cnn[nH]2)[C@@H](C)CN1S(=O)(=O)c1c(F)cccc1F` [Example 79, {(2S,5R)-4-[(2,6-difluorophenyl)sulfonyl]-2,5-dimethylpiperazin-1-yl}(1H-1,2,3-triazol-5-yl)methanone], the half-maximal inhibitory concentration (IC50) came out at 2 nM.
To `COC(=O)c1cccc(S(=O)(=O)N2CCN(C(=O)c3cnn[nH]3)CC2(C)C)c1` [Example 131, methyl 3-{[2,2-dimethyl-4-(1H-1,2,3-triazol-5-ylcarbonyl)piperazin-1-yl]sulfonyl}benzoate] belongs 204 nM; to `C[C@@H]1CN(S(=O)(=O)c2cccc(OC(F)(F)F)c2)C[C@H](C)N1C(=O)c1cnn[nH]1` [Example 106, [(2R,6S)-2,6-dimethyl-4-{[3-(trifluoromethoxy)phenyl]sulfonyl}piperazin-1-yl](1H-1,2,3-triazol-5-yl)methanone], 34 nM; to `C[C@@H]1CN(C(=O)c2cnn[nH]2)[C@@H](C)CN1S(=O)(=O)c1ccc(F)c(F)c1` [Example 82, {(2S,5R)-4-[(3,4-difluorophenyl)sulfonyl]-2,5-dimethylpiperazin-1-yl}(1H-1,2,3-triazol-5-yl)methanone], 2 nM.
To `COc1ccc(S(=O)(=O)N2C[C@H](C)N(C(=O)c3cnn[nH]3)C[C@H]2C)cc1` [Example 67, {(2S,5R)-4-[(4-methoxyphenyl)sulfonyl]-2,5-dimethylpiperazin-1-yl}(1H-1,2,3-triazol-5-yl)methanone] belongs 7 nM; to `Cc1cc(C)cc(S(=O)(=O)N2C[C@H](C)N(C(=O)c3cnn[nH]3)C[C@H]2C)c1` [Example 92, {(2S,5R)-4-[(3,5-dimethylphenyl)sulfonyl]-2,5-dimethylpiperazin-1-yl}(1H-1,2,3-triazol-5-yl)methanone], 1 nM.

The record behind these values is patent publication US20200079758A1, “[4-(PHENYLSULFONYL)PIPERAZIN-1-YL](1H-1,2,3-TRIAZOL-4-YL)METHANONES” (priority 2016, published 2020).
